From publication doi:10.1101/2025.02.26.640266v1, “Predicting PROTAC-targeted Degradation and Designing Androgen Receptor Degraders with AiPROTAC” (biorxiv, 2025)

Biological target: CRBN (human cereblon) (Homo sapiens, UniProt Q96SW2)
Assay: HTRF human cereblon binding kit (competition)

- IC50: 150 nM
Structure (SMILES): CC1(C)[C@H](NC(=O)c2ccc(N3CCN(CCCSc4ccc5c(c4)CN(C4CCC(=O)NC4=O)C5=O)CC3)nc2)C(C)(C)[C@H]1Oc1ccc(C#N)c(Cl)c1 (stereo partly shown) [GT19, PROTAC GT19]
